From PubChem BioAssay AID686920 (Broad Institute, 2013) come the findings set out here.

Values joined by “and” are separate entries in the source; they are usually repeats but may differ in a detail not shown here. Identical values can stand only once. Active and inactive are the calls of the source.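 How the source made its calls: active means fitted curve reaching 35% inhibition at a dose no higher than twice the top valid tested dose; inconclusive means flat fit with 30 to 70% inhibition, or a poor fit; inactive means the rest, including activity in the opposite direction.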

Tested on in the first test: not listed separately
Description: NR0B1 reporter signal reduction in A673 cells – cell-based, luciferase luminescence, cherry-pick, EWS/Fli inhibitor project, dose response (AID 686920). The note with it: A673 NR0B1-luciferase reporter, viability-normalised luminescence; at 7.5 µM (top of the series).
Take `O=C(CCCCl)Nc1nc(-c2ccc3c(c2)OCCO3)cs1`: the activity change, negative = inhibition is 80% (inactive).

The test is the same for the next values; noted with them: A673 NR0B1-luciferase reporter, viability-normalised luminescence; at 21 µM (top of the series).
`O=C1CCCC2=C1C(c1ccccn1)Nc1ccc(C(=O)c3ccccc3)cc1N2` (stereo unspecified): the activity change, negative = inhibition is 8.98% (inactive). Still for that read-out and setting: then `COC(=O)C[C@@H]1CC[C@@H]2[C@@H](COc3ccc(NC(=O)Nc4cccc(F)c4)cc3C(=O)N2C)O1`, with -4.28% (inactive); and `COCc1cc(C)nc2sc(C(=O)NCCO)c(-n3cccc3)c12`, with 112% (inactive).

Still in this test, the particulars now being: A673 NR0B1-luciferase reporter, viability-normalised luminescence; at 68 µM (top of the series).
In the case of `CN(C)[C@@H]1CCC[C@@H]1OC(=O)C(c1ccccc1)c1ccccc1`, the activity change, negative = inhibition is 12.1% (inactive).

For the compound `COC(=O)C(CC#Cc1ccc2c(c1)[C@]1(C(=O)N2)[C@H](c2ccc(OCCO)cc2)N2[C@H](c3ccccc3)[C@H](c3ccccc3)OC(=O)[C@H]2[C@@H]1C(=O)N1CCN(c2ncccn2)CC1)C(=O)OC`, the activity change, negative = inhibition was 0.883% (inactive).

For the compound `Cc1ccsc1C(=O)OCC(=O)NCCC1=CCCCC1`, the activity change, negative = inhibition is 97.5% (inactive). On to `S=C(NCCN1CCOCC1)Nc1ccccc1Cl`, for which the activity change, negative = inhibition was 15.5% (inactive). Consider `Nc1nc(N)c2c(ccc3nccc32)[nH]1`, for which the activity change, negative = inhibition was 55.3% (inactive). Consider `C(=C\c1ccc(C2[C@H]3CNC[C@@H]2N3Cc2ccccn2)cc1)/c1ccccc1` (stereo partly specified), for which the activity change, negative = inhibition is 32.3% (inactive).

`CCS(=O)(=O)N1Cc2ccccc2CC1C(=O)Nc1nnc(SCc2ccc(C#N)cc2)s1` (stereo unspecified): the activity change, negative = inhibition is -0.731% (inactive). On to `C/C(=N\N(c1ccccc1)c1ccccc1)c1ccco1`, for which the activity change, negative = inhibition was -1.23% (inactive). `N/C(Cc1nc(-c2ccc(F)cc2)cs1)=N\O`: the activity change, negative = inhibition was 42.1% (inactive). As for `CCOc1cc2[nH]c(=S)n(Cc3ccc(C(=O)N4CCN(C)CC4)cc3)c(=O)c2cc1OCC`, the activity change, negative = inhibition is 20% (inactive). For the compound `CN(C)C(=S)N=Nc1[nH]c2ccccc2c1O`, the activity change, negative = inhibition is 13% (inactive). Take `CCc1ccc(Cn2ncc3c(C(=O)O)cc(C)nc32)cc1`: the activity change, negative = inhibition was 13.8% (inactive). As for `CN(C(=O)COC(=O)c1cc(-c2ccccc2Cl)nc2ccccc12)C1CCS(=O)(=O)C1` (stereo unspecified), the activity change, negative = inhibition is 9.88% (inactive). Take `COC(=O)C[C@H]1C=C[C@@H](NC(=O)Nc2ccc(C(F)(F)F)cc2)[C@H](CO)O1`: the activity change, negative = inhibition was 8.17% (inactive).

As to `COc1cccc(S(=O)(=O)N(C)C[C@H]2OCc3cnnn3CCCC(=O)N([C@@H](C)CO)C[C@H]2C)c1`, the activity change, negative = inhibition was -19.9% (inactive).

As for `Nc1ncn([C@@H]2O[C@H](CO)[C@@H](O)[C@H]2O)c(=O)n1`, the activity change, negative = inhibition was -32.1% (inactive). Take `N=c1ccn2c(n1)O[C@H]1[C@H](O)[C@@H](CO)O[C@H]12`: the activity change, negative = inhibition is -26.9% (inactive).

As for `CC(Oc1cccc(Cl)c1)C(=O)NCCCCc1ccccc1` (stereo unspecified), the activity change, negative = inhibition is 4.85% (inactive). Still for that read-out and setting: to `Brc1ccc(CSc2nnc(-c3ccco3)o2)cc1` belongs 86.7% (inactive). As for `CCn1c(/C=N/NC(=O)c2ccc(OC)cc2)nc2ccccc21`, the activity change, negative = inhibition is 30.3% (inactive). On to `C[C@H](CO)N1C[C@H](C)[C@H](CN(C)Cc2ccc(C(=O)Nc3ccccc3N)cc2)Oc2ccc(N(C)C)cc2CC1=O`, for which the activity change, negative = inhibition was 10.7% (inactive).

As to `Cc1cc(C(=O)NNC(=O)c2ccc(S(=O)(=O)N(C)C)cc2)c(C)o1`, the activity change, negative = inhibition is 5.18% (inactive). Take `COc1ccccc1NS(=O)(=O)c1cc(NC(=O)c2cc3ccccc3oc2=O)ccc1C`: the activity change, negative = inhibition was 53.4% (inactive). Take `Oc1c(Cl)cc(Cl)c2cccnc12`: the activity change, negative = inhibition is -29.3% (inactive). For `COC(=O)C[C@@H]1CC[C@@H]2[C@H](COc3ccc(NC(=O)Nc4cccc(Cl)c4)cc3C(=O)N2C)O1`, the activity change, negative = inhibition was -19.3% (inactive). With `CC(=O)Nc1ccc(OCC(=O)N(CC(C)C)C2CCS(=O)(=O)C2)cc1` (stereo unspecified), the activity change, negative = inhibition was 6.28% (inactive). Turning to `CCCn1nnc(NC(=S)NC(=O)C(C)(C)C)n1`, the activity change, negative = inhibition is 37.8% (inactive).

Regarding `COC(=O)c1c(C)[nH]c(/C=N/Nc2ccccc2)c1C`, the activity change, negative = inhibition is 38.6% (inactive). Regarding `CC1(CCc2ccccc2)NC(=O)N(CC(=O)N2CC(=O)Nc3ccccc32)C1=O` (stereo unspecified), the activity change, negative = inhibition is 6.97% (inactive). As for `Cc1ccccc1N=Nc1c(O)n(C)c2ccccc12`, the activity change, negative = inhibition was -31.3% (inactive). As to `Nc1ccn([C@@H]2O[C@H](CO)[C@@H](O)C2O)c(=O)n1` (stereo partly specified), the activity change, negative = inhibition is -31.3% (inactive).

The subject of a further test is A673 NR0B1-luciferase reporter, viability-normalised luminescence. The test is described as above.
Conditions: not given
`COc1cc2c(OC(C)=O)c3c(c(-c4ccc5c(c4)OCO5)c2cc1OC)C(=O)OC3`: the AC35 is 2.34 µM. With `COC(=O)COc1ccc(-c2nccc(-c3ccccn3)n2)cc1`, the AC35 was 1.5 µM. `O=C(C[C@@H]1CC[C@@H]2[C@H](COC[C@@H](O)CN2S(=O)(=O)c2ccc(F)cc2)O1)NCc1ccc(Cl)c(Cl)c1`: the AC35 is 61.8 µM. For `CN(C[C@H]1N[C@@H](CO)[C@@H]1c1ccc(C2=CCCC2)cc1)C(=O)c1ccc(F)cc1`, the AC35 is 5.59 µM. As to `CN1C(=O)c2cc(NC(=O)c3ccc(C(F)(F)F)cc3)ccc2OC[C@@H]2O[C@@H](CC(=O)NC3Cc4ccccc4C3)CC[C@H]21`, the AC35 was 8.33 µM. Take `COC(=O)C[C@@H]1CC[C@@H]2[C@H](COc3ccc(NC(=O)c4ccccc4)cc3C(=O)N2C)O1`: the AC35 was 53.4 µM. Take `C/C(=N\Nc1cccc2cccnc12)c1ccccn1`: the AC35 was 19 µM.

As for `Cc1ccccc1S(=O)(=O)N1CC[C@@H]2[C@@H](CO)Nc3ccc(-c4ccc(C#N)cc4)cc3[C@@H]21`, the AC35 was 5.42 µM. As for `CCc1ccc(/C=C2\SC(=S)N(CCC(=O)Nc3cc(C)on3)C2=O)cc1`, the AC35 is 6.38 µM.

Consider `O=c1c(Cl)cc(Cl)nn1-c1ccccc1`, for which the AC35 was 8.95 µM. For `CC(C)NC(=O)N(C)C[C@@H]1Oc2cc(C#Cc3ccc(F)cc3)ccc2S(=O)(=O)N([C@H](C)CO)C[C@H]1C`, the AC35 is 33.9 µM. Still for that read-out and setting: to `C/C(=C\c1ccccc1)C(=O)N1CCC=CC1=O` belongs 10.3 µM; to `C[C@H]1CN([C@@H](C)CO)C(=O)c2cccc(NC(=O)c3ccc(-c4nccs4)cc3)c2O[C@@H]1CN(C)Cc1ccc(C(=O)Nc2ccccc2N)cc1`, 14.1 µM. For the compound `Cc1nc(N)nc(N)c1-c1ccc(Cl)c(Cl)c1`, the AC35 was 0.495 µM.

As to `CCOc1cc(N2CCC(O)CC2)ccc1Nc1ncc2c(n1)N(C)c1ccccc1C(=O)N2C`, the AC35 was 2.01 µM. Regarding `COc1ccc(-c2nc3c(s2)CCc2onc(-c4ccc(OC)cc4)c2-3)cc1`, the AC35 was 7.59 µM. On to `COc1cc2oc3cc(C#Cc4ccc(N)cc4)ccc3c(=O)c2cc1OC`, for which the AC35 was 10.3 µM.

With `O=C(CCCN1C(=O)/C(=C/c2ccccc2Cl)SC1=S)NNC(=O)c1ccc(Cl)cc1Cl`, the AC35 was 3.4 µM. In the case of `CCNC(=O)c1cc2c(c(-c3cccc(-c4cccc(OC)c4)c3)n1)[C@H](CCO)N([S@@](=O)C(C)(C)C)C2`, the AC35 is 6.78 µM. In the case of `C[C@@H]1CN([C@@H](C)CO)C(=O)c2cc(NS(=O)(=O)c3ccc(F)cc3)ccc2O[C@@H]1CN(C)Cc1ccc(C(=O)Nc2ccccc2N)cc1`, the AC35 was 9.48 µM. For the compound `C[C@@H]1CN([C@@H](C)CO)C(=O)c2cc(N(C)C)ccc2O[C@H]1CN(C)Cc1ccc(C(=O)Nc2ccccc2N)cc1`, the AC35 is 12.7 µM.

For the compound `C[C@H]1CN([C@@H](C)CO)C(=O)Cc2cc(NC(=O)CCCCCC(=O)Nc3ccccc3N)ccc2O[C@H]1CN(C)Cc1ccc(C(F)(F)F)cc1`, the AC35 was 6.15 µM.

As to `CC(C)N1C/C(=C/c2cccnc2)C(=O)/C(=C/c2cccnc2)C1`, the AC35 is 10.8 µM.

Regarding `COc1ccc(C2c3cc4c(cc3OC(NNC(N)=O)C2C)OCO4)cc1` (stereo unspecified), the AC35 is 14 µM. In the case of `Cc1cccc(/C=N/Nc2ccc3ccccc3n2)c1`, the AC35 is 1.6 µM. With `COCCCNc1ccn2nc(-c3ccccc3)cc2n1`, the AC35 is 10.1 µM. For `C[C@H]1CN([C@@H](C)CO)C(=O)c2cc(N(C)C)ccc2O[C@@H]1CN(C)Cc1ccc(C(=O)Nc2ccccc2N)cc1`, the AC35 was 9.36 µM.

On to `CN(C)c1ccc(C=c2c3ccccc3n3c2c2c([n+]3C)CCCC2)cc1`, for which the AC35 is 1.9 µM. `C[C@H](CO)N1C[C@H](C)[C@H](CN(C)CC2CCCCC2)Oc2ccc(NC(=O)CCCCCC(=O)Nc3ccccc3N)cc2CC1=O`: the AC35 was 4.96 µM. Turning to `Oc1c(C(c2ccc(Cl)cc2)N2CCCC2)cc(Cl)c2cccnc12` (stereo unspecified), the AC35 was 9.79 µM. The same measure, in the same setting: to `C[C@H](O)C#Cc1ccc2c(c1)O[C@@H](CN(C)Cc1ccc(-c3ccccc3)cc1)[C@H](C)CN([C@@H](C)CO)S2(=O)=O` belongs 6.15 µM and 8.6 µM; to `CCN1C/C(=C/c2ccc(OC)c(O)c2)C(=O)/C(=C/c2ccc(OC)c(O)c2)C1`, 17.3 µM; to `COc1ccc(C2=Nn3c([n+](C)c4ccccc43)SC2)cc1`, 46.5 µM. Consider `O=C(NC(c1ccc(F)cc1)c1ccc2ccccc2n1)C1CCN(Cc2cccc(C(F)(F)F)c2)CC1` (stereo unspecified), for which the AC35 was 7.77 µM. For the compound `C=C1C(=O)O[C@@H]2[C@H]1[C@@H](OC(=O)/C(C)=C/C)C/C(C)=C\C(=O)/C=C(\C)[C@@H]2O`, the AC35 was 8.09 µM. On the same count and under the same terms, to `c1ccc(Nc2nnc(-c3ccc4c(c3)OCO4)o2)cc1` belongs 3.06 µM; to `CC(C)(C)C(=O)Nc1ccc(N=Nc2ccccc2)cc1`, 10.7 µM. With `CN1C(=O)c2cc(NC(=O)c3ccc(Cl)cc3)ccc2OC[C@@H]2O[C@@H](CC(=O)NCc3cccc(F)c3)CC[C@H]21`, the AC35 is 7.86 µM. With `Cc1cccc(/C=C(\c2nc3ccccc3[nH]2)S(=O)(=O)c2ccccc2)c1`, the AC35 is 5.46 µM. As to `CO[C@H]1CN(C)C(=O)c2ccc(NC(=O)c3ccc(-c4ccccc4)cc3)cc2OC[C@H](C)NC[C@H]1C`, the AC35 is 15 µM.

For the compound `CC12CCC(O)CC1CCC1C2CCC2(C)C(C3=CC(=O)OC3)CCC12O` (stereo unspecified), the AC35 is 0.391 µM.
